The results in this text go back to patent publication US9980943B2, “Methods of treating muscular dystrophy” (BOARD OF REGENTS OF THE NEVADA SYSTEM OF HIGHER EDUCATION, …, priority 2013, dated 2018).

What all share (format): cell-based, mouse
For assay [1], the system named is α7 integrin (LacZ reporter in α7+/LacZ myotubes). Put plainly: Myotube α7 integrin FDG assay (Burkin assay in myotubes, 96-well). Conditions: myotubes.
Assay [2] concerns β-galactosidase in CMV-LacZ C2C12 myotubes. Put plainly: CMV-LacZ secondary screen in C2C12 myotubes (β-Gal stabilizing assay). Conditions: C2C12 CMV-LacZ myotubes, fold relative to DMSO. In short, it runs like this: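 β-gal stabilization was measured in C2C12 myoblasts or myotubes stably transfected with a CMV-driven LacZ construct, using the FDG β-gal assay. Compounds were tested in dose-response at 0.5, 1, 5, 10, 20 and 40 μM, with two replicates per point.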

Assay [3] has as its system β-galactosidase in CMV-LacZ C2C12 myoblasts. Put plainly: CMV-LacZ secondary screen in C2C12 myoblasts (β-Gal stabilizing assay). Conditions: CMV-LacZ C2C12 myoblasts. A digest of the protocol: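 A secondary screen identifies compounds that stabilize β-gal independently of the native promoter, using CMV-LacZ C2C12 cells. Curves span 0.5–40 μM at six levels, in duplicate.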

The test system of assay [4] is α7 integrin (LacZ reporter in α7βgal+/− myoblasts). The assay is described as follows: Myoblast α7+/LacZ integrin FDG assay (Burkin assay in myoblasts, 96-well). Conditions: α7+/LacZ myoblasts, 96-well.

Regarding `OC(c1nc2ccc(F)cc2[nH]1)C(O)c1nc2ccc(F)cc2[nH]1` (stereo not drawn) [MLS001182368-01], the “Burkin Assay in Myotubes, α7 integrin LacZ reporter signal relative to DMSO” value in assay [1] (0.5 uM) turned out to be 1.044; in assay [1] (1 uM) it was 1.0792; in assay [1] (5 uM), 1.2117; in assay [1] (10 uM) it was 1.02; in assay [1] (20 uM), 0.9097; in assay [1] (40 uM) it was 0.9193. Moreover, the “CMV-LACZ in Myotubes, signal relative to DMSO” value was 0.8667 in assay [2] (0.5 uM); 1.0619 in assay [2] (1 uM); 0.8931 in assay [2] (5 uM); 0.8690 in assay [2] (10 uM); 0.9953 in assay [2] (20 uM); 1.0318 in assay [2] (40 uM). Moreover, the “CMV-LACZ in Myoblasts (β-galactosidase activity relative to DMSO)” value in assay [3] (0.5 uM) worked out at 0.9571; in assay [3] (1 uM) it was 0.8783; in assay [3] (5 uM), 1.0528; in assay [3] (10 uM), 0.9225; in assay [3] (20 uM) it was 1.2322; in assay [3] (40 uM), 1.1615. Besides, the “Burkin Assay in Myoblasts, signal relative to DMSO” value in assay [4] (0.5 uM) turned out to be 1.081; in assay [4] (1 uM), 1.215; in assay [4] (5 uM), 0.914; in assay [4] (10 uM), 0.8945; in assay [4] (20 uM), 1.001; in assay [4] (40 uM) it was 0.8952.
As to `CCCc1nnc(SCC(=O)NC2CCCC2)n1CCOC` [MLS001217935-01], the “Burkin Assay in Myotubes, α7 integrin LacZ reporter signal relative to DMSO” value in assay [1] (0.5 uM) is 0.9075; in assay [1] (1 uM) it was 1.018; in assay [1] (5 uM) it was 0.8812; in assay [1] (10 uM), 1.081; in assay [1] (20 uM) it was 0.7887; in assay [1] (40 uM), 0.5246. The “CMV-LACZ in Myotubes, signal relative to DMSO” value is recorded as 0.9705 in assay [2] (0.5 uM); 1.1381 in assay [2] (1 uM); 1.1473 in assay [2] (5 uM); 0.9648 in assay [2] (10 uM); 1.0547 in assay [2] (20 uM); 0.9495 in assay [2] (40 uM). Besides, the “CMV-LACZ in Myoblasts (β-galactosidase activity relative to DMSO)” value in assay [3] (0.5 uM) is listed as 1.1729; in assay [3] (1 uM), 1.1167; in assay [3] (5 uM), 1.0175; in assay [3] (10 uM), 1.0465; in assay [3] (20 uM) it was 0.7859; in assay [3] (40 uM) it was 0.5381. Besides, the “Burkin Assay in Myoblasts, signal relative to DMSO” value in assay [4] (0.5 uM) was found to be 1.162; in assay [4] (1 uM) it was 1.076; in assay [4] (5 uM) it was 0.9106; in assay [4] (10 uM), 0.893; in assay [4] (20 uM), 0.8002; in assay [4] (40 uM), 0.587.
Regarding `Cn1c(-c2ccccc2)cc2ccccc21` [MLS001215074-01], the “Burkin Assay in Myotubes, α7 integrin LacZ reporter signal relative to DMSO” value in assay [1] (0.5 uM) was found to be 0.7886; in assay [1] (1 uM), 0.8307; in assay [1] (5 uM) it was 1.05; in assay [1] (10 uM) it was 1.132; in assay [1] (20 uM), 0.7505; in assay [1] (40 uM), 0.8488. Further, the “CMV-LACZ in Myotubes, signal relative to DMSO” value stood at 0.8752 in assay [2] (0.5 uM); 0.9238 in assay [2] (1 uM); 0.8364 in assay [2] (5 uM); 0.8583 in assay [2] (10 uM); 0.8700 in assay [2] (20 uM); 0.9930 in assay [2] (40 uM). Moreover, the “CMV-LACZ in Myoblasts (β-galactosidase activity relative to DMSO)” value was 0.7877 in assay [3] (0.5 uM); 0.7800 in assay [3] (1 uM); 1.1754 in assay [3] (5 uM); 1.0294 in assay [3] (10 uM); 1.1277 in assay [3] (20 uM); 1.1432 in assay [3] (40 uM). The “Burkin Assay in Myoblasts, signal relative to DMSO” value came out at 1.023 in assay [4] (0.5 uM); 0.9004 in assay [4] (1 uM); 0.9431 in assay [4] (5 uM); 0.9738 in assay [4] (10 uM); 0.7339 in assay [4] (20 uM); 0.5974 in assay [4] (40 uM).
On to `CCn1c(=O)c2cc(C(=O)N(C)c3cc(C)ccc3OC)sc2c2ccccc21` [MLS000731285-01], for which the “Burkin Assay in Myotubes, α7 integrin LacZ reporter signal relative to DMSO” value worked out at 0.8544 in assay [1] (0.5 uM); 0.961 in assay [1] (1 uM); 0.8695 in assay [1] (5 uM); 0.9409 in assay [1] (10 uM); 0.69 in assay [1] (20 uM); 0.1953 in assay [1] (40 uM). Also, the “CMV-LACZ in Myotubes, signal relative to DMSO” value in assay [2] (0.5 uM) turned out to be 1.2048; in assay [2] (1 uM), 1.0562; in assay [2] (5 uM), 1.4794; in assay [2] (10 uM), 1.3012; in assay [2] (20 uM) it was 1.0310; in assay [2] (40 uM), 0.6450. Moreover, the “CMV-LACZ in Myoblasts (β-galactosidase activity relative to DMSO)” value in assay [3] (0.5 uM) worked out at 1.1747; in assay [3] (1 uM) it was 1.0853; in assay [3] (5 uM), 1.0851; in assay [3] (10 uM) it was 0.8436; in assay [3] (20 uM), 0.9582; in assay [3] (40 uM) it was 0.6572. The “Burkin Assay in Myoblasts, signal relative to DMSO” value came to 1.064 in assay [4] (0.5 uM); 0.9235 in assay [4] (1 uM); 0.7727 in assay [4] (5 uM); 0.7344 in assay [4] (10 uM); 0.604 in assay [4] (20 uM); 0.6077 in assay [4] (40 uM).
`CCOc1ccccc1NC(=O)c1cccc2c1C(=O)N(C1CCCCC1)C2` [MLS000912726-01]: the “Burkin Assay in Myotubes, α7 integrin LacZ reporter signal relative to DMSO” value turned out to be 1.066 in assay [1] (0.5 uM); 0.8889 in assay [1] (1 uM); 0.8818 in assay [1] (5 uM); 0.886 in assay [1] (10 uM); 0.8231 in assay [1] (20 uM); 0.8237 in assay [1] (40 uM). Moreover, the “CMV-LACZ in Myotubes, signal relative to DMSO” value in assay [2] (0.5 uM) is 0.8527; in assay [2] (1 uM), 0.9264; in assay [2] (5 uM) it was 0.9111; in assay [2] (10 uM), 1.1041; in assay [2] (20 uM), 1.2060; in assay [2] (40 uM), 1.0150. The “CMV-LACZ in Myoblasts (β-galactosidase activity relative to DMSO)” value in assay [3] (0.5 uM) was 1.1004; in assay [3] (1 uM), 0.9692; in assay [3] (5 uM), 1.0182; in assay [3] (10 uM) it was 1.0325; in assay [3] (20 uM), 1.0257; in assay [3] (40 uM) it was 1.0643. The “Burkin Assay in Myoblasts, signal relative to DMSO” value in assay [4] (0.5 uM) was determined as 1.279; in assay [4] (1 uM), 1.177; in assay [4] (5 uM), 0.9838; in assay [4] (10 uM), 1.02; in assay [4] (20 uM), 1.1258; in assay [4] (40 uM), 1.022.
